Measurements as given in patent publication US20190292577A1, “COMPOSITIONS AND METHOD FOR THE TREATMENT OF ACNE” (ProdermIQ, Inc., priority 2018, published 2019).

Legend:
P. acnes = assay: Skin microbiome profiling, benzoyl peroxide versus no benzoyl peroxide; format: in vivo, Propionibacterium acnes; details: benzoyl peroxide applied versus no benzoyl peroxide, FIG. 3
From the text: (§1) Described herein are findings of a study of individuals comprising preadolescent females with acne, and changes in the microbiomes of the individuals with the use of benzoyl peroxide wash. Flora was taken from different areas of the faces of the individuals and studied for sensitivity to benzoyl peroxide. Inclusion criteria of the study for which results are provided herein include: • 1. Minimum of 6 acne lesions present. • 2. No prior use of prescription acne product. • 3. No prior use of over-the-counter benzoyl peroxide anti-acne agent. • 4. Ages: 7-12 • 5. Sex: Female Exclusion criteria of the study for which results are provided herein include: • 1. Significant active skin conditions on the face other than acne vulgaris (may include atopic dermatitis, psoriasis, or others). • 2. Use of oral or parenteral antibiotics within 3 months prior to the study. Sites from which samples were taken along with abbreviations for each include: • RA or RAL: Retroauricular Behind Ear • CH or CHN: Chin • CK or CKN: Cheek • FH or FHN: Forehead • AN or ANN: Ala Nasal [Outside of Nose] • CO or CON: Comedone In some embodiments, the skin microbiome of an individual subject is evaluated. Individual microbiomes vary greatly across subjects and regions of the skin. […] Samples were taken from locations on the heads of the individuals including behind the ear, chin, cheek, forehead, and outside the nose. […]

S. mitis = assay: as above; format: in vivo; details: benzoyl peroxide applied versus no benzoyl peroxide, FIG. 3
From the text: as §1

skin microbiome = assay: Site specific and overall effect of benzoyl peroxide on the skin microbiome; format: in vivo, human
From the text: as §1

C2 P. acnes strain = assay: P. acnes strain profiling before and after benzoyl peroxide treatment; format: in vivo, Propionibacterium acnes; details: after benzoyl peroxide treatment, FIG. 39
Protocol: A group of subjects with P. acnes populations were treated with benzoyl peroxide and divided into 3 cohorts based on the effectiveness of the treatment. Subjects in the “Decrease Cohort” experienced a decrease in P. acnes populations, subjects in the “Increase Cohort” experienced an increase in P. acnes populations, and the “Flat Cohort” experienced non-measureable variance in P. acnes populations. […] Shown is the mean proportion of P. acnes across “Increase”, “Decrease”, and “Flat” cohort. […] The Al P. acnes across is differentiated between “Increase” and “Decrease” cohort. […] The K4 & C3 P. acnes is differentiated between “Increase” and “Decrease” cohort. […] The F4 & D1 P. acnes is differentiated between “Increase” and “Decrease” cohort. […] […] The K4 and A2 P. acnes strains are more prevalent in “Decrease” cohort while the K1 strain is more prevalent in “Increase” cohort.

## O=C(OOC(=O)c1ccccc1)c1ccccc1 [benzoyl peroxide]
P. acnes
  P. acnes levels within the microbiome: decreased
S. mitis
  S. mitis relative proportion in the microbiome: increased
Skin microbiome; among all sites tested, from the site specific prediction models of Table 2
  Skin site impacted the most by benzoyl peroxide: cheek gets impacted the most
Skin microbiome; benzoyl peroxide treatment
  Impact on overall microbiome diversity: does not impact the overall microbiome diversity
C2 P. acnes strain
  Prevalence of the C2 P. acnes strain after treatment: becomes more prevalent
